One assay deals with T1, MAO-B (Homo sapiens, UniProt P27338).
T1 construct: purchased Sigma Aldrich
T1 sequence (P27338 1-520): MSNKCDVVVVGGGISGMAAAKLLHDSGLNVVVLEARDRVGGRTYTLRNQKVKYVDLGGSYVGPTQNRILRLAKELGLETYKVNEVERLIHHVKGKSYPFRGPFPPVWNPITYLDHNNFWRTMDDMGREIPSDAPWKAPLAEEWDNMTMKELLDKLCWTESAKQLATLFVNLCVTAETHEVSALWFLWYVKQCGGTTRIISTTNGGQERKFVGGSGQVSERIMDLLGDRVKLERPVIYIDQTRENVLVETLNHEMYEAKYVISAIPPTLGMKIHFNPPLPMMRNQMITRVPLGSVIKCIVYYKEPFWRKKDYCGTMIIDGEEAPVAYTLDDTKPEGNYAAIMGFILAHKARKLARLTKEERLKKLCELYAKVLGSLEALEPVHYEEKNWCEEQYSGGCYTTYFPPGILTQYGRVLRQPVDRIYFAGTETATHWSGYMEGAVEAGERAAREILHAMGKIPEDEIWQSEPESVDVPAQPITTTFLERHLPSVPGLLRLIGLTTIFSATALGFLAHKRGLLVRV
Briefly: MAO-B enzyme inhibition assay (benzylamine substrate). It counts as biochemical. The note with it: for remaining activity at 10 µM: read-out: Residual Activities at 10 μM (%) MAO-B; for SI (MAO): MAO-B selectivity over MAO-A, based on IC50 values. The protocol:
(§1) MAO assays were performed as described previously, i.e., ~0.09 U/mL of MAO-A and MAO-B were reacted with 0.06 mM kynuramine and 0.3 mM benzylamine, respectively, in 50 mM sodium phosphate (pH 7.2). […] For inhibition assay, the compounds were dissolved in DMSO and added into the reaction mixture. The final concentration of DMSO in the reaction mixture was less than 1% to avoid solvent disturbance.

In a further assay the target is T2, MAO-A (Homo sapiens, UniProt P21397).
T2 construct: purchased Sigma Aldrich
T2 sequence (P21397 1-527): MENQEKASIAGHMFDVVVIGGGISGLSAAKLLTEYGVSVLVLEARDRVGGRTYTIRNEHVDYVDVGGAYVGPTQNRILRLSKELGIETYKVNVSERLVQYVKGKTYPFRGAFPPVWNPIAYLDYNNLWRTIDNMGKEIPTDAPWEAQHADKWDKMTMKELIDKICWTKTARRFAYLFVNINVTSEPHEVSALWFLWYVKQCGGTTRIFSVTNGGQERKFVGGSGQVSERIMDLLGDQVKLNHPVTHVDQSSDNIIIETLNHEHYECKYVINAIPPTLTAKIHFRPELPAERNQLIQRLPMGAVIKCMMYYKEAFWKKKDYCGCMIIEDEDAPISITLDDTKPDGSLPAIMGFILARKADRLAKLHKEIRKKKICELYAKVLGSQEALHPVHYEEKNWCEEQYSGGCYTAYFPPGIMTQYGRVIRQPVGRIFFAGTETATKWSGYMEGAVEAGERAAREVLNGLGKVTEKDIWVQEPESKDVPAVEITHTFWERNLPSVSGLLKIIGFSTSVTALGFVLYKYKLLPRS
Put plainly: MAO-A enzyme inhibition assay (kynuramine substrate). The note with it: mean ± SD; for remaining activity at 10 µM: 10 μM compound, read-out: Residual Activities at 10 μM (%) MAO-A. Type of assay: biochemical. The protocol:
as §1

A further assay addresses BChE (Equus caballus, UniProt P81908). Put plainly: biochemical. The conditions noted are these: read-out: Residual Activities at 10 μM (%) BChE. How it is done: (§2) For measuring cholinesterase (ChE) activity, the Ellman method was employed with a slight modification. The AChE and BchE with ~0.02 U/mL were reacted with 0.5 mM ATCI and BTCI, respectively, followed by addition of 0.5 mM DTNB. […] In the inhibition assay, the enzyme and the compound were preincubated in reaction buffer for 15 min, followed by adding substrates and DTNB.

For another assay, the target named is AChE (Electrophorus electricus, UniProt O42275). Briefly: AChE inhibition assay (Ellman method, ATCI). Type of assay: biochemical. The note with it: for remaining activity at 10 µM / Residual Activities at 10 μM (%) AChE: 10 μM compound, mean ± SD; for remaining activity at 10 µM: read-out: Residual Activities at 10 μM (%) AChE; for SI (ChE): AChE selectivity over BChE, based on IC50 values. The protocol:
as §2
For orientation: In Ellman's method for cholinesterases, released thiocholine reacts with DTNB.

From paper PMC9860728, “Identification of New N-methyl-piperazine Chalcones as Dual MAO-B/AChE Inhibitors” (Pharmaceuticals, 2023) come the findings set out here.

Chain of AChE (O42275 24-633): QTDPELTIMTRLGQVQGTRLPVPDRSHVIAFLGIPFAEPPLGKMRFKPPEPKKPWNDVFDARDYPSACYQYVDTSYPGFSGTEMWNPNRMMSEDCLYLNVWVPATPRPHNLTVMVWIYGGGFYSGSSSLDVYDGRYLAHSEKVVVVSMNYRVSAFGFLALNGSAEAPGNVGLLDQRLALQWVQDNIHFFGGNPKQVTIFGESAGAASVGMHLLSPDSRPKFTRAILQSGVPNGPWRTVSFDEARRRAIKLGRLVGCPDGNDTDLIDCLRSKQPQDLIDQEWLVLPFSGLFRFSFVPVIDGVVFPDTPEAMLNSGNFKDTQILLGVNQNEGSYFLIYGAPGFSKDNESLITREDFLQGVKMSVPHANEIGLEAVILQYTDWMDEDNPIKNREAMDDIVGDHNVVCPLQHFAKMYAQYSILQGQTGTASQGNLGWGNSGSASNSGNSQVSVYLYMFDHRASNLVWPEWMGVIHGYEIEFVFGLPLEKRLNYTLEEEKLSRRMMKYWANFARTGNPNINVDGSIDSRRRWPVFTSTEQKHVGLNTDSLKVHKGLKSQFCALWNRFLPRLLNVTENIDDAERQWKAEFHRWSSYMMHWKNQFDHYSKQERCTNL
Chain of BChE (P81908 whole entry): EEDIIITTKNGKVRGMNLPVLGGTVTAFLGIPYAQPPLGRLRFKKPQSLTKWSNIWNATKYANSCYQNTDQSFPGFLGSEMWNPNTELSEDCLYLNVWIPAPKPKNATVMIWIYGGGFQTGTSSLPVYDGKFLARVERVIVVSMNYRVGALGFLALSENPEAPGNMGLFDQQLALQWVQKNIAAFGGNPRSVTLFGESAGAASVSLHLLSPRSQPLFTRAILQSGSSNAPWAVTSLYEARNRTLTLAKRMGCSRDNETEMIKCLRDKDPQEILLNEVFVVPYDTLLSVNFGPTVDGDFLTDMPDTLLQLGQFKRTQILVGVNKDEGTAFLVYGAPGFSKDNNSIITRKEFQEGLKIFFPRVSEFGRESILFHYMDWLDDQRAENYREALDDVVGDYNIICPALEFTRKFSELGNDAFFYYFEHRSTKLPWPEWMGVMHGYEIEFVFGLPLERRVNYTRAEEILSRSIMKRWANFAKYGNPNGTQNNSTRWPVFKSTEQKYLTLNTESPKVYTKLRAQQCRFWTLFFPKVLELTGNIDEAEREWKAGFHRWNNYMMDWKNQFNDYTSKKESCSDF

On to `CN1CCN(c2ccc(C(=O)/C=C/c3cc(F)cc(C(F)(F)F)c3)cc2)CC1` [Compound 2i, (E)-3-(3-fluoro-5-(trifluoromethyl)phenyl)-1-(4-(4-methylpiperazin-1-yl)phenyl)prop-2-en-1-one], for which the remaining activity at 10 µM at MAO-B (10 μM compound, mean ± SD) was determined as 20.4 ± 2.47%; on MAO-A, 114 ± 6.06%; on BChE, 63.7 ± 6.24%; on AChE, 51.5 ± 4.92%. Besides, the “SI (MAO)” value at MAO-B was determined as 17.17. For the same molecule, the IC50 at MAO-B (mean ± SD) is 2.33 ± 0.14 µM; against MAO-A, over 40 µM. Also, the “SI (ChE)” value on AChE stood at 1.82.
As for `CN1CCN(c2ccc(C(=O)/C=C/c3ccc(Cl)c(C(F)(F)F)c3)cc2)CC1` [Compound 2l, (E)-3-(4-chloro-3-(trifluoromethyl)phenyl)-1-(4-(4-methylpiperazin-1-yl)phenyl)prop-2-en-1-one], the “Residual Activities at 10 μM (%) MAO-B” value at MAO-B (10 μM compound, mean ± SD) stood at 0.00 ± 1.79%. Further, on MAO-B, the “SI (MAO)” value amounted to 28.37. In addition, the half-inhibitory concentration (IC50) was 1.41 ± 0.04 µM against MAO-B (mean ± SD) and over 40 µM on MAO-A. The remaining activity at 10 µM on MAO-A was determined as 85.9 ± 1.66%; at BChE, 73 ± 1.75%; on AChE, 68.5 ± 1.32%. Further, the “SI (ChE)” value at AChE is on record as 1.85.
Take `CN1CCN(c2ccc(C(=O)/C=C/c3ccc(OC(F)F)cc3)cc2)CC1` [Compound 2h, (E)-3-(4-(difluoromethoxy)phenyl)-1-(4-(4-methylpiperazin-1-yl)phenyl)prop-2-en-1-one]: the remaining activity at 10 µM on MAO-B (10 μM compound, mean ± SD) turned out to be 17.3 ± 3.77%; on MAO-A, 55.2 ± 4.12%; at BChE, 73.9 ± 3.35%; at AChE, 38 ± 0.92%. For the same molecule, the “SI (MAO)” value at MAO-B is reported as 6.51. The results for the IC50 at MAO-B (mean ± SD) and at MAO-A were 6.14 ± 0.43 µM and over 40 µM, respectively. For the same molecule, on AChE, the “SI (ChE)” value was over 6.87.
Take `CSc1ccc(/C=C/C(=O)c2ccc(N3CCN(C)CC3)cc2)cc1` [Compound 2g, (E)-1-(4-(4-methylpiperazin-1-yl)phenyl)-3-(4-(methylthio)phenyl)prop-2-en-1-one]: the remaining activity at 10 µM on MAO-B (10 μM compound, mean ± SD) was 40 ± 1.67%; on MAO-A it was 97.2 ± 1.99%; on BChE, 74.7 ± 4.48%; at AChE, 50.4 ± 4.43%. Also, on MAO-B, the “SI (MAO)” value was found to be 5.93. Further, the IC50 at MAO-B (mean ± SD) was 6.74 ± 0.03 µM; on MAO-A, over 40 µM. Besides, the “SI (ChE)” value on AChE is recorded as over 3.22.
Take `CN1CCN(c2ccc(C(=O)/C=C/c3cc(C(F)(F)F)ccc3Cl)cc2)CC1` [Compound 2o, (E)-3-(2-chloro-5-(trifluoromethyl)phenyl)-1-(4-(4-methylpiperazin-1-yl)phenyl)prop-2-en-1-one]: the remaining activity at 10 µM on MAO-B (10 μM compound, mean ± SD) was determined as 22.9 ± 2.26%; on MAO-A, 92.5 ± 4.23%; on BChE, 6.46 ± 3.05%; at AChE, 37.6%. In addition, on MAO-B, the “SI (MAO)” value turned out to be 12.50. Besides, the IC50 against MAO-B (mean ± SD) is 3.2 ± 0.32 µM; on MAO-A it was over 40 µM. Besides, at AChE, the “SI (ChE)” value is 0.31.
`COc1cc(/C=C/C(=O)c2ccc(N3CCN(C)CC3)cc2)ccc1F` [Compound 2m, (E)-3-(4-fluoro-3-methoxyphenyl)-1-(4-(4-methylpiperazin-1-yl)phenyl)prop-2-en-1-one]: the remaining activity at 10 µM on MAO-B (10 μM compound, mean ± SD) was 39.9 ± 6.26%; at MAO-A, 78.8 ± 1.66%; on BChE, 66.8 ± 2.1%; on AChE, 27.6 ± 1.9%. In addition, the “SI (MAO)” value on MAO-B came to 5.92. For the same molecule, the IC50 was 6.76 ± 0.82 µM on MAO-B (mean ± SD) and over 40 µM against MAO-A. For the same molecule, on AChE, the “SI (ChE)” value is reported as 4.18.
On to `CN1CCN(c2ccc(C(=O)/C=C/c3ccc(N(C)C)cc3)cc2)CC1` [Compound 2f, (E)-3-(4-(dimethylamino)phenyl)-1-(4-(4-methylpiperazin-1-yl)phenyl)prop-2-en-1-one], for which the remaining activity at 10 µM came to 21.3 ± 3.77% on MAO-B (10 μM compound, mean ± SD); 83.6 ± 4.22% at MAO-A; 76.5 ± 3.35% at BChE. The “SI (MAO)” value on MAO-B amounted to 12.16. Moreover, the IC50 against MAO-B (mean ± SD) is 3.29 ± 0.08 µM; against MAO-A, over 40 µM. The “Residual Activities at 10 μM (%) AChE” value on AChE is 26.37 ± 1.85%. Moreover, the “SI (ChE)” value on AChE is given as over 13.20.
Regarding `CN1CCN(c2ccc(C(=O)/C=C/c3cccc(C(F)(F)F)c3)cc2)CC1` [Compound 2a, (E)-1-(4-(4-methylpiperazin-1-yl)phenyl)-3-(3-(trifluoromethyl)phenyl)prop-2-en-1-one], the remaining activity at 10 µM at MAO-B (10 μM compound, mean ± SD) was 12.8 ± 0.79%; on MAO-A it was 118 ± 7.73%; on BChE, 58.6 ± 6.8%; on AChE, 34.9 ± 5.19%. The “SI (MAO)” value on MAO-B is listed as 15.50. In addition, the IC50 was 2.58 ± 0.19 µM against MAO-B (mean ± SD) and over 40 µM at MAO-A. Besides, on AChE, the “SI (ChE)” value was 2.44.
As to `CN1CCN(c2ccc(C(=O)/C=C/c3ccc(C#N)cc3)cc2)CC1` [Compound 2d, (E)-4-(3-(4-(4-methylpiperazin-1-yl)phenyl)-3-oxoprop-1-en-1-yl)benzonitrile], the remaining activity at 10 µM at MAO-B (10 μM compound, mean ± SD) came out at 16.7 ± 4.71%; at MAO-A, 72.3 ± 2.5%; at BChE, 71.5 ± 5.25%; on AChE it was 24.3 ± 0.95%. Moreover, the “SI (MAO)” value at MAO-B turned out to be 18.18. The figures for the IC50 against MAO-B (mean ± SD) and against MAO-A were 2.2 ± 0.06 µM and over 40 µM, respectively. Besides, the “SI (ChE)” value on AChE came to 10.38.
With `COc1ccc(/C=C/C(=O)c2ccc(N3CCN(C)CC3)cc2)c(C(F)(F)F)c1` [Compound 2p, (E)-3-(4-methoxy-2-(trifluoromethyl)phenyl)-1-(4-(4-methylpiperazin-1-yl)phenyl)prop-2-en-1-one], the remaining activity at 10 µM on MAO-B (10 μM compound, mean ± SD) was 15 ± 3.93%; on MAO-A, 44.5 ± 3.31%; on BChE, 28.9 ± 4.08%; on AChE, 37.8 ± 7.64%. Also, the “SI (MAO)” value at MAO-B was found to be 3.06. Also, the IC50 against MAO-B (mean ± SD) turned out to be 2.18 ± 0.01 µM; against MAO-A, 6.67 ± 0.63 µM. The “SI (ChE)” value on AChE is on record as 1.06.
Take `CC(C)c1ccc(/C=C/C(=O)c2ccc(N3CCN(C)CC3)cc2)cc1` [Compound 2e, (E)-3-(4-isopropylphenyl)-1-(4-(4-methylpiperazin-1-yl)phenyl)prop-2-en-1-one]: the remaining activity at 10 µM turned out to be 44.1 ± 3.04% at MAO-B (10 μM compound, mean ± SD); 60.6 ± 3.98% on MAO-A; 49.3 ± 1.28% on BChE. Further, the “SI (MAO)” value at MAO-B is 1.94. The values for the IC50 on MAO-B (mean ± SD) and on MAO-A were 8.36 ± 0.39 µM and 16.2 ± 1.74 µM, respectively. For the same molecule, the “Residual Activities at 10 μM (%) AChE” value at AChE is recorded as 17.75 ± 1.85%. The “SI (ChE)” value on AChE is listed as 3.83.
On to `CN1CCN(c2ccc(C(=O)/C=C/c3ccc(F)cc3)cc2)CC1` [Compound 2c, (E)-3-(4-fluorophenyl)-1-(4-(4-methylpiperazin-1-yl)phenyl)prop-2-en-1-one], for which the remaining activity at 10 µM on MAO-B (10 μM compound, mean ± SD) was 22.7 ± 1.61%; at MAO-A, 103 ± 8.84%; on BChE, 49.7 ± 3.7%; at AChE, 49.4 ± 4.66%. Also, the “SI (MAO)” value at MAO-B is given as 13.42. The IC50 is 2.98 ± 0.18 µM against MAO-B (mean ± SD) and over 40 µM on MAO-A. For the same molecule, at AChE, the “SI (ChE)” value stood at 1.79.

One may read the IC50 as the concentration that gives 50% inhibition.
